Values of other authors as cited in patent US20250205171A1, “TRANSDERMAL DELIVERY SYSTEMS FOR CERTAIN FACTOR Xa INHIBITORS AND RELATED METHODS FOR THEIR PREPARATION AND USE” (ARx, LLC, priority 2022, published 2025).

Question: Which water solubility does the source give for `O=C(NC[C@H]1CN(c2ccc(N3CCOCC3=O)cc2)C(=O)O1)c1ccc(Cl)s1` [rivaroxaban] here?
Answer: about 0.01 mg/mL

Question: For `CO[C@H]1O[C@H](COS(=O)(=O)O)[C@@H](O[C@@H]2O[C@@H](C(=O)O)[C@@H](O[C@H]3O[C@H](COS(=O)(=O)O)[C@@H](O[C@@H]4O[C@H](C(=O)O)[C@@H](O[C@H]5O[C@H](COS(=O)(=O)O)[C@@H](O)[C@H](O)[C@H]5NS(=O)(=O)O)[C@H](O)[C@H]4O)[C@H](OS(=O)(=O)O)[C@H]3NS(=O)(=O)O)[C@H](O)[C@H]2OS(=O)(=O)O)[C@H](O)[C@H]1NS(=O)(=O)O` [fondaparinux], which water solubility is on record?
Answer: about 7.91 mg/mL

Question: For `COC(=O)[C@H](Cc1cccc(C(=N)N)c1)[C@@H](C)NC(=O)c1ccc(-c2cc[n+]([O-])cc2)cc1` [otamixaban], which water solubility is on record?
Answer: about 0.0088 mg/mL

Question: For `CO[C@@H]1C[C@H](C(=O)Nc2ccc(-n3ccccc3=O)cc2F)N(C(=O)Nc2ccc(Cl)cc2)C1` [eribaxaban], which water solubility is on record?
Answer: about 0.00717 mg/mL

Question: With `CN1CCc2nc(C(=O)N[C@@H]3C[C@@H](C(=O)N(C)C)CC[C@@H]3NC(=O)C(=O)Nc3ccc(Cl)cn3)sc2C1` [edoxaban] as the molecule, how does the water solubility read?
Answer: about 0.093 mg/mL

Question: With `COc1ccc(C(=O)Nc2cccc(O)c2NC(=O)c2ccc(N3CCCN(C)CC3)cc2)cc1` [darexaban] as the molecule, how does the water solubility read?
Answer: about 0.0048 mg/mL

Question: For `COc1ccc(NC(=O)c2ccc(C(=N)N(C)C)cc2)c(C(=O)Nc2ccc(Cl)cn2)c1` [betrixaban], which water solubility is on record?
Answer: 2500 to 2700 µg/mL

Question: Which water solubility does the source give for `COc1ccc(-n2nc(C(N)=O)c3c2C(=O)N(c2ccc(N4CCCCC4=O)cc2)CC3)cc1` [apixaban] here?
Answer: about 0.11 mg/mL

Question: Which water solubility does the source give for `O=C([C@H](O)CS(=O)(=O)c1ccc2cc(Cl)ccc2c1)N1CCC(N2CCCNC2=O)CC1` [letaxaban] here?
Answer: about 0.217 mg/mL
